Results: patent US20240368134A1, “AROMATIC COMPOUND, PHARMACEUTICAL COMPOSITION, AND APPLICATION THEREOF” (SHANGHAI KYGENT PHARMACEUTICAL CO., LTD, priority 2021, published 2024)

Tested on: MSTO-211H cells
Assay: Tumor cell proliferation inhibition experiment (Cell Titer Glo), MSTO-211H
Format: cell-based
Details: Homo sapiens, 72 h, MSTO-211H lung cancer cells, three days incubation
Experimental: (§1) Cell Titer Glo luminescent cell viability assay kit was used to quantify the ATP content in cells, so as to quantify the number of viable cells. […] On the second day, the compound was added to the 96-well plate after a three-fold serial dilution to eight concentrations, and incubated at 37° C. for three days in the 5% carbon dioxide incubator. The culture medium was treated with the addition of Cell Titer Glo luminescent cell viability assay kit (Promega G7570) reagent, incubated for 10 minutes, and then placed in Envision (Pelkin Elmer) to read the luminescence signal. DMSO was used instead of the compound as a control to calculate the inhibition rate (inhibition rate %=(1−compound signal/DMSO signal)*100), and then standard four parameter curve fitting was used to calculate the inhibitory activity IC50.

Row | IC50 | Structure (SMILES)
1 | 414 nM | CNC(=O)c1cc2c(c(F)c1-c1c(Cl)c(F)cc3c1C[C@](c1ccccc1)([C@@H]1CCCN1)O3)C1CC1O2 (stereo partly shown) [Compound 2a]
2 | 690 nM | CNC(=O)c1cc2c(c(F)c1-c1c(Cl)c(F)cc3c1C[C@](c1ccccc1)([C@@H]1CC4(CC4)CN1)O3)OC1CC21 (stereo partly shown) [Compound 18a]
3 | 80 nM | CNC(=O)c1cc2c(c(F)c1-c1c(Cl)c(F)cc3c1C[C@](c1ccccc1)([C@@H]1CCCN1)O3)OC1CC21 (stereo partly shown) [Compound 17a]
4 | 236 nM | CNC(=O)c1cnc(OCCO)c(F)c1-c1c(Cl)c(F)cc2c1C[C@](c1ccccc1)([C@@H]1CC3(CC3)CN1)O2 [Compound 10a]

Tested on: not listed separately
Assay: Pharmacokinetic evaluation experiment in mice (IV and PO)
Format: in vivo
Details: mouse, plasma; male ICR mice, PO 30 mg/kg vs IV 5 mg/kg
Experimental: 120 healthy adult male ICR mice were selected and divided into 20 groups according to the principle of similar body weight, with 6 mice in each group of IV (10 groups) and 6 mice in each group of PO (10 groups). An appropriate amount of sample was weighed, sequentially added with an appropriate amount of DMA, Solutol, and Saline according to the volume ratio of 10:10:80, and stirred and sonicated to achieve a clarification of 1 mg/mL. After overnight fasting, mice in the IV group were intravenously administered with a volume of 5 mL/kg and a dose of 5 mg/kg, respectively; and mice in the PO group were intragastrically administered with a volume of 30 mL/kg and a dose of 30 mg/kg, respectively. Interleaved sampling was performed on every 6 mice after administration of the test compound. In the IV group, approximately 30 μL of blood was collected at 0.0833, 0.25, 0.5, 1, 2, 4, 6, 8, and 24 hours, and placed in a commercial anticoagulant tube pre-filled with EDTA-K2. In the PO group, approximately 30 μL of blood was collected at 0.25, 0.5, 1, 2, 4, 6, 8, and 24 hours, and placed in the commercial anticoagulant tube pre-filled with EDTA-K2. The tubes were centrifuged for 15 minutes to separate the plasma, and the plasma was stored at −80° C. Animals were allowed to eat 2 hours after administration. The content of the test compound in the plasma of mice after intravenous and intragastric administration was determined by LC/MS/MS method. The linear range of the method was 1.00 to 1000 ng/mL: plasma samples were analyzed after protein precipitation.

Row | bioavailability | Structure (SMILES)
5 | 95.4% | CNC(=O)c1cc2c(c(F)c1-c1c(Cl)c(F)cc3c1C[C@](c1ccccc1)([C@@H]1CCCN1)O3)C1CC1O2 (stereo partly shown) [Compound 2a]
6 | 27.9% | CNC(=O)c1cc2c(c(F)c1-c1c(Cl)c(F)cc3c1C[C@](c1ccccc1)([C@@H]1CC4(CC4)CN1)O3)OC1CC21 (stereo partly shown) [Compound 18a]
7 | 52.2% | CNC(=O)c1cc2c(c(F)c1-c1c(Cl)c(F)cc3c1C[C@](c1ccccc1)([C@@H]1CCCN1)O3)OC1CC21 (stereo partly shown) [Compound 17a]
8 | 17.3% | CNC(=O)c1cnc(OCCO)c(F)c1-c1c(Cl)c(F)cc2c1C[C@](c1ccccc1)([C@@H]1CC3(CC3)CN1)O2 [Compound 10a]

Same assay, conditions: mouse; male ICR mice, IV 5 mg/kg, plasma

Row | clearance | half-life | Structure (SMILES)
9 | 86.3 mL/min/kg | 3.82 h | CNC(=O)c1cc2c(c(F)c1-c1c(Cl)c(F)cc3c1C[C@](c1ccccc1)([C@@H]1CCCN1)O3)C1CC1O2 (stereo partly shown) [Compound 2a]
10 | 107 mL/min/kg | 1.59 h | CNC(=O)c1cc2c(c(F)c1-c1c(Cl)c(F)cc3c1C[C@](c1ccccc1)([C@@H]1CC4(CC4)CN1)O3)OC1CC21 (stereo partly shown) [Compound 18a]
11 | 75.8 mL/min/kg | 1.79 h | CNC(=O)c1cc2c(c(F)c1-c1c(Cl)c(F)cc3c1C[C@](c1ccccc1)([C@@H]1CCCN1)O3)OC1CC21 (stereo partly shown) [Compound 17a]
12 | 50.4 mL/min/kg | 1.11 h | CNC(=O)c1cnc(OCCO)c(F)c1-c1c(Cl)c(F)cc2c1C[C@](c1ccccc1)([C@@H]1CC3(CC3)CN1)O2 [Compound 10a]

Same assay, conditions: mouse; male ICR mice, IV 5 mg/kg, plasma; read-out: AUC

Row | AUC | Structure (SMILES)
13 | 750 ng·h/mL | CNC(=O)c1cc2c(c(F)c1-c1c(Cl)c(F)cc3c1C[C@](c1ccccc1)([C@@H]1CCCN1)O3)C1CC1O2 (stereo partly shown) [Compound 2a]
14 | 804 ng·h/mL | CNC(=O)c1cc2c(c(F)c1-c1c(Cl)c(F)cc3c1C[C@](c1ccccc1)([C@@H]1CC4(CC4)CN1)O3)OC1CC21 (stereo partly shown) [Compound 18a]
15 | 1100 ng·h/mL | CNC(=O)c1cc2c(c(F)c1-c1c(Cl)c(F)cc3c1C[C@](c1ccccc1)([C@@H]1CCCN1)O3)OC1CC21 (stereo partly shown) [Compound 17a]
16 | 1650 ng·h/mL | CNC(=O)c1cnc(OCCO)c(F)c1-c1c(Cl)c(F)cc2c1C[C@](c1ccccc1)([C@@H]1CC3(CC3)CN1)O2 [Compound 10a]

Same assay, conditions: mouse; male ICR mice, IV 5 mg/kg, plasma; read-out: Vss

Row | Vd | Structure (SMILES)
17 | 28 L/kg | CNC(=O)c1cc2c(c(F)c1-c1c(Cl)c(F)cc3c1C[C@](c1ccccc1)([C@@H]1CCCN1)O3)C1CC1O2 (stereo partly shown) [Compound 2a]
18 | 12.2 L/kg | CNC(=O)c1cc2c(c(F)c1-c1c(Cl)c(F)cc3c1C[C@](c1ccccc1)([C@@H]1CC4(CC4)CN1)O3)OC1CC21 (stereo partly shown) [Compound 18a]
19 | 11.7 L/kg | CNC(=O)c1cc2c(c(F)c1-c1c(Cl)c(F)cc3c1C[C@](c1ccccc1)([C@@H]1CCCN1)O3)OC1CC21 (stereo partly shown) [Compound 17a]
20 | 2.42 L/kg | CNC(=O)c1cnc(OCCO)c(F)c1-c1c(Cl)c(F)cc2c1C[C@](c1ccccc1)([C@@H]1CC3(CC3)CN1)O2 [Compound 10a]

Same assay, conditions: mouse; male ICR mice, PO 30 mg/kg, plasma; read-out: AUC

Row | AUC | Structure (SMILES)
21 | 4300 ng·h/mL | CNC(=O)c1cc2c(c(F)c1-c1c(Cl)c(F)cc3c1C[C@](c1ccccc1)([C@@H]1CCCN1)O3)C1CC1O2 (stereo partly shown) [Compound 2a]
22 | 1680 ng·h/mL | CNC(=O)c1cc2c(c(F)c1-c1c(Cl)c(F)cc3c1C[C@](c1ccccc1)([C@@H]1CC4(CC4)CN1)O3)OC1CC21 (stereo partly shown) [Compound 18a]
23 | 3450 ng·h/mL | CNC(=O)c1cc2c(c(F)c1-c1c(Cl)c(F)cc3c1C[C@](c1ccccc1)([C@@H]1CCCN1)O3)OC1CC21 (stereo partly shown) [Compound 17a]
24 | 1710 ng·h/mL | CNC(=O)c1cnc(OCCO)c(F)c1-c1c(Cl)c(F)cc2c1C[C@](c1ccccc1)([C@@H]1CC3(CC3)CN1)O2 [Compound 10a]

Same assay, conditions: mouse; male ICR mice, PO 30 mg/kg, plasma; read-out: Cmax

Row | Cmax | Structure (SMILES)
25 | 474 ng/mL | CNC(=O)c1cc2c(c(F)c1-c1c(Cl)c(F)cc3c1C[C@](c1ccccc1)([C@@H]1CCCN1)O3)C1CC1O2 (stereo partly shown) [Compound 2a]
26 | 199 ng/mL | CNC(=O)c1cc2c(c(F)c1-c1c(Cl)c(F)cc3c1C[C@](c1ccccc1)([C@@H]1CC4(CC4)CN1)O3)OC1CC21 (stereo partly shown) [Compound 18a]
27 | 424 ng/mL | CNC(=O)c1cc2c(c(F)c1-c1c(Cl)c(F)cc3c1C[C@](c1ccccc1)([C@@H]1CCCN1)O3)OC1CC21 (stereo partly shown) [Compound 17a]
28 | 603 ng/mL | CNC(=O)c1cnc(OCCO)c(F)c1-c1c(Cl)c(F)cc2c1C[C@](c1ccccc1)([C@@H]1CC3(CC3)CN1)O2 [Compound 10a]

Same assay, conditions: mouse; male ICR mice, PO 30 mg/kg, plasma; read-out: Tmax

Row | Tmax | Structure (SMILES)
29 | 4 h | CNC(=O)c1cc2c(c(F)c1-c1c(Cl)c(F)cc3c1C[C@](c1ccccc1)([C@@H]1CCCN1)O3)C1CC1O2 (stereo partly shown) [Compound 2a]
30 | 0.8 h | CNC(=O)c1cc2c(c(F)c1-c1c(Cl)c(F)cc3c1C[C@](c1ccccc1)([C@@H]1CC4(CC4)CN1)O3)OC1CC21 (stereo partly shown) [Compound 18a]
31 | 1.33 h | CNC(=O)c1cc2c(c(F)c1-c1c(Cl)c(F)cc3c1C[C@](c1ccccc1)([C@@H]1CCCN1)O3)OC1CC21 (stereo partly shown) [Compound 17a]
32 | 0.5 h | CNC(=O)c1cnc(OCCO)c(F)c1-c1c(Cl)c(F)cc2c1C[C@](c1ccccc1)([C@@H]1CC3(CC3)CN1)O2 [Compound 10a]

Tested on: NCI-H2052 cells
Assay: Tumor cell proliferation inhibition experiment (Cell Titer Glo), NCI-H2052
Format: cell-based
Details: Homo sapiens, 72 h, NCI-H2052 lung cancer cells, three days incubation
Experimental: as §1

Row | IC50 | Structure (SMILES)
33 | 928 nM | CNC(=O)c1cc2c(c(F)c1-c1c(Cl)c(F)cc3c1C[C@](c1ccccc1)([C@@H]1CCCN1)O3)C1CC1O2 (stereo partly shown) [Compound 2a]
34 | 730 nM | CNC(=O)c1cc2c(c(F)c1-c1c(Cl)c(F)cc3c1C[C@](c1ccccc1)([C@@H]1CC4(CC4)CN1)O3)OC1CC21 (stereo partly shown) [Compound 18a]
35 | 90 nM | CNC(=O)c1cc2c(c(F)c1-c1c(Cl)c(F)cc3c1C[C@](c1ccccc1)([C@@H]1CCCN1)O3)OC1CC21 (stereo partly shown) [Compound 17a]
36 | 328 nM | CNC(=O)c1cnc(OCCO)c(F)c1-c1c(Cl)c(F)cc2c1C[C@](c1ccccc1)([C@@H]1CC3(CC3)CN1)O2 [Compound 10a]
